Drawing on ChEMBL document CHEMBL6120985, “Discovery of a potent PARP1 PROTAC as a chemosensitizer for the treatment of colorectal cancer” (Eur J Med Chem, 2025), this text covers DC50 and Emax for 14 compounds.

The first experiment deals with T1, Protein cereblon/Poly [ADP-ribose] polymerase 1 (Homo sapiens, UniProt P09874+Q96SW2). In words: PROTAC activity at CRBN/PARP1 in human HCT-116 cells assessed as degradation of PARP1. It counts as cell-based.
Target sequence in this assay (P09874 whole entry): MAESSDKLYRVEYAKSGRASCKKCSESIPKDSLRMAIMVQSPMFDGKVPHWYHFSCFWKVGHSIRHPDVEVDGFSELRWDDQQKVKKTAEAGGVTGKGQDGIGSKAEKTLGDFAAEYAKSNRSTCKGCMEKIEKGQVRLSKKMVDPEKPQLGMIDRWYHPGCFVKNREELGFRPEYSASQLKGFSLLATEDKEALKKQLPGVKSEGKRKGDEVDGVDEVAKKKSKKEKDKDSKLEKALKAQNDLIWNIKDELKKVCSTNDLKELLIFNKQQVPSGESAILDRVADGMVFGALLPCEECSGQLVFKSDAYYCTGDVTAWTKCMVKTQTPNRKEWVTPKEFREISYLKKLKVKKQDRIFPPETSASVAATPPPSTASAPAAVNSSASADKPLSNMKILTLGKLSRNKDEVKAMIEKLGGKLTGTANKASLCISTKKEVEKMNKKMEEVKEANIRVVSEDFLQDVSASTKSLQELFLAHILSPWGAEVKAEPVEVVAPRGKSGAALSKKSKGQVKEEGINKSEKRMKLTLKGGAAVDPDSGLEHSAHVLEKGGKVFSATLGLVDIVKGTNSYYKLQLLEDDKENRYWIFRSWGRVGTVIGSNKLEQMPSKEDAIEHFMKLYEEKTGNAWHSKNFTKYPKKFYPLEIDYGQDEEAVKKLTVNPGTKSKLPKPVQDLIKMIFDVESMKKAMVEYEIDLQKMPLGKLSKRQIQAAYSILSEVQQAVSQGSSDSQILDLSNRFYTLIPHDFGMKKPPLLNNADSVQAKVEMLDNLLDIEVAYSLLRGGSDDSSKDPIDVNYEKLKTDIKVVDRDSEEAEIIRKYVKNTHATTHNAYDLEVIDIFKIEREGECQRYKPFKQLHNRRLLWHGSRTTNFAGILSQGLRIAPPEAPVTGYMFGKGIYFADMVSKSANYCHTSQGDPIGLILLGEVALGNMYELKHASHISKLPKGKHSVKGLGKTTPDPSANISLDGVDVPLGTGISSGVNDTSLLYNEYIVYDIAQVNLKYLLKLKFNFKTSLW
Target sequence in this assay (Q96SW2 whole entry): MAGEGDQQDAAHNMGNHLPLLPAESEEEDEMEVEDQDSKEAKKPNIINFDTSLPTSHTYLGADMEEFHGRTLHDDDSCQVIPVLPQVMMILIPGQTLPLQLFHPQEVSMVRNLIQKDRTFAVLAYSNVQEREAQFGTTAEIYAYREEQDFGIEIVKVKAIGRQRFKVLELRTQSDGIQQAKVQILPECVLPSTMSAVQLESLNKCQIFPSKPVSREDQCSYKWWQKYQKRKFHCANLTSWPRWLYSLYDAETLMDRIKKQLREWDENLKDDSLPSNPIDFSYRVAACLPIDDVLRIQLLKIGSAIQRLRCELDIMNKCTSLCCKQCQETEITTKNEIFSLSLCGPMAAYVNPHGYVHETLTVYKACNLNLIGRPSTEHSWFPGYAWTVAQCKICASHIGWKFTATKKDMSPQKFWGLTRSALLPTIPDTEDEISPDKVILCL
As for `NC(=O)c1cccc2cn(-c3ccc([C@@H]4CCCN(C(=O)CC5CCN(CCC6CCN(c7ccc8c(c7)C(=O)N(C7CCC(=O)NC7=O)C8=O)CC6)CC5)C4)cc3)nc12` (stereo partly specified), the 50% degradation concentration (DC50) – broadly, the midpoint of the concentration-degradation curve – is greater than 20 µM.

Turning to `NC(=O)c1cccc2cn(-c3ccc([C@@H]4CCCN(C(=O)CCCCCCNc5ccc6c(c5)C(=O)N(C5CCC(=O)NC5=O)C6=O)C4)cc3)nc12` (stereo partly specified), the DC50 is greater than 20 µM.

In the case of `NC(=O)c1cccc2cn(-c3ccc([C@@H]4CCCN(C(=O)CC5CCN(C(=O)CC6CCN(CC7CN(c8ccc9c(c8)C(=O)N(C8CCC(=O)NC8=O)C9=O)C7)CC6)CC5)C4)cc3)nc12` (stereo partly specified), the DC50 came out at 16.3 µM.

In the case of `NC(=O)c1cccc2cn(-c3ccc([C@@H]4CCCN(C(=O)CC5CCN(CCC6CCN(CC7CN(c8ccc9c(c8)C(=O)N(C8CCC(=O)NC8=O)C9=O)C7)CC6)CC5)C4)cc3)nc12` (stereo partly specified), the DC50 was 0.5 µM.

Take `NC(=O)c1cccc2cn(-c3ccc([C@@H]4CCCN(C(=O)CC5CCN(CC6CCN(c7ccc8c(c7)C(=O)N(C7CCC(=O)NC7=O)C8=O)CC6)CC5)C4)cc3)nc12` (stereo partly specified): the DC50 was 15.6 µM.

For `NC(=O)c1cccc2cn(-c3ccc([C@@H]4CCCN(CCC5CCN(CCC6CCN(CC7CN(c8ccc9c(c8)C(=O)N(C8CCC(=O)NC8=O)C9=O)C7)CC6)CC5)C4)cc3)nc12` (stereo partly specified), the DC50 was 0.03 µM.

`NC(=O)c1cccc2cn(-c3ccc([C@@H]4CCCN(C(=O)CCCCNc5ccc6c(c5)C(=O)N(C5CCC(=O)NC5=O)C6=O)C4)cc3)nc12` (stereo partly specified): the DC50 was greater than 20 µM.

Take `NC(=O)c1cccc2cn(-c3ccc([C@@H]4CCCN(C(=O)COCCOCCOCCOCCOCCNc5ccc6c(c5)C(=O)N(C5CCC(=O)NC5=O)C6=O)C4)cc3)nc12` (stereo partly specified): the DC50 is 19.1 µM.

With `NC(=O)c1cccc2cn(-c3ccc([C@@H]4CCCN(C(=O)CC5CCN(C(=O)CC6CCN(c7ccc8c(c7)C(=O)N(C7CCC(=O)NC7=O)C8=O)CC6)CC5)C4)cc3)nc12` (stereo partly specified), the DC50 was greater than 20 µM.

Take `NC(=O)c1cccc2cn(-c3ccc([C@@H]4CCCN(C(=O)C5CCN(C(=O)C6CCN(c7ccc8c(c7)C(=O)N(C7CCC(=O)NC7=O)C8=O)CC6)CC5)C4)cc3)nc12` (stereo partly specified): the DC50 was greater than 20 µM.

As to `NC(=O)c1cccc2cn(-c3ccc([C@@H]4CCCN(C(=O)CC5CCN(CC6CCN(c7ccc8c(c7)C(=O)N(C7CCC(=O)NC7=O)C8=O)C6)CC5)C4)cc3)nc12` (stereo partly specified), the DC50 was greater than 20 µM.

As for `NC(=O)c1cccc2cn(-c3ccc([C@@H]4CCCN(C(=O)CC5CCN(C(=O)C6CCN(c7ccc8c(c7)C(=O)N(C7CCC(=O)NC7=O)C8=O)CC6)CC5)C4)cc3)nc12` (stereo partly specified), the DC50 is greater than 20 µM.

`NC(=O)c1cccc2cn(-c3ccc([C@@H]4CCCN(C(=O)C5CCN(CC6CN(c7ccc8c(c7)C(=O)N(C7CCC(=O)NC7=O)C8=O)C6)CC5)C4)cc3)nc12` (stereo partly specified): the DC50 amounted to 19 µM.

Regarding `NC(=O)c1cccc2cn(-c3ccc([C@@H]4CCCN(C(=O)CC5CCN(CC6CN(c7ccc8c(c7)C(=O)N(C7CCC(=O)NC7=O)C8=O)C6)CC5)C4)cc3)nc12` (stereo partly specified), the DC50 was greater than 20 µM.

The target in a further experiment is T1, Protein cereblon/Poly [ADP-ribose] polymerase 1. In words: PROTAC activity at CRBN/PARP1 in human HCT-116 cells assessed as maximum degradation of PARP1 relative to control. It counts as cell-based.
Target sequence in this assay (P09874 2-1014 limits assumed): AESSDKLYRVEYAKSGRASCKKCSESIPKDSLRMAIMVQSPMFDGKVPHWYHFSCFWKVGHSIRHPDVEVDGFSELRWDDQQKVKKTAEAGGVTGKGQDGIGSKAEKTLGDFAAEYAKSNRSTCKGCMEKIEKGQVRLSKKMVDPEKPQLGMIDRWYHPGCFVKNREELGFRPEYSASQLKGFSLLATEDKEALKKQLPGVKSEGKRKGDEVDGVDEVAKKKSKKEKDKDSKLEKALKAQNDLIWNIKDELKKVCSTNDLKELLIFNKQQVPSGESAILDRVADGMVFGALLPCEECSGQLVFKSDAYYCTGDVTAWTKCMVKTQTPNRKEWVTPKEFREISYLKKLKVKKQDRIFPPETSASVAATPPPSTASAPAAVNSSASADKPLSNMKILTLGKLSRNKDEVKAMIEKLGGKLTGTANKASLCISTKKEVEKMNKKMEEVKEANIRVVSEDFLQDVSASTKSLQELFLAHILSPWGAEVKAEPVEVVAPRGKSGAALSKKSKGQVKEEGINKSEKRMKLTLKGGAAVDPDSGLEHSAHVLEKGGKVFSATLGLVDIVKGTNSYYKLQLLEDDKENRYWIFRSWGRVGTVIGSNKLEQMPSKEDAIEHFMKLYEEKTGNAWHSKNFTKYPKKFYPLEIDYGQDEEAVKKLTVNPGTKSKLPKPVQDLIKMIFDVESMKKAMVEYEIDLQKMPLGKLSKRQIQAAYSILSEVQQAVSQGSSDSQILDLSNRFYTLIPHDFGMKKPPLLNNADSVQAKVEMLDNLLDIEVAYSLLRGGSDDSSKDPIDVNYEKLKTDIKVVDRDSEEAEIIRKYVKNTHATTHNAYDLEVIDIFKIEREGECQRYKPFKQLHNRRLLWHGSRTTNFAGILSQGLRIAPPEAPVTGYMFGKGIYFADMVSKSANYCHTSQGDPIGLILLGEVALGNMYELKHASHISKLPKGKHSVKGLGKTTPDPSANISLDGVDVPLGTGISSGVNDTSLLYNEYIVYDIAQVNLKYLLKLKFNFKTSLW
Target sequence in this assay (Q96SW2 whole entry partner): as the sequence (Q96SW2 whole entry) above
For the compound `NC(=O)c1cccc2cn(-c3ccc([C@@H]4CCCN(C(=O)CC5CCN(CCC6CCN(c7ccc8c(c7)C(=O)N(C7CCC(=O)NC7=O)C8=O)CC6)CC5)C4)cc3)nc12` (stereo partly specified), the maximal response (Emax) (in general, the maximal effect, on the per cent scale that the assay sets) came to 30.1%.

In the case of `NC(=O)c1cccc2cn(-c3ccc([C@@H]4CCCN(C(=O)CCCCCCNc5ccc6c(c5)C(=O)N(C5CCC(=O)NC5=O)C6=O)C4)cc3)nc12` (stereo partly specified), the Emax came out at 37.3%.

Take `NC(=O)c1cccc2cn(-c3ccc([C@@H]4CCCN(C(=O)CC5CCN(C(=O)CC6CCN(CC7CN(c8ccc9c(c8)C(=O)N(C8CCC(=O)NC8=O)C9=O)C7)CC6)CC5)C4)cc3)nc12` (stereo partly specified): the Emax came to 47.6%.

As to `NC(=O)c1cccc2cn(-c3ccc([C@@H]4CCCN(C(=O)CC5CCN(CCC6CCN(CC7CN(c8ccc9c(c8)C(=O)N(C8CCC(=O)NC8=O)C9=O)C7)CC6)CC5)C4)cc3)nc12` (stereo partly specified), the Emax is 83.6%.

`NC(=O)c1cccc2cn(-c3ccc([C@@H]4CCCN(C(=O)CC5CCN(CC6CCN(c7ccc8c(c7)C(=O)N(C7CCC(=O)NC7=O)C8=O)CC6)CC5)C4)cc3)nc12` (stereo partly specified): the Emax turned out to be 59.4%.

Regarding `NC(=O)c1cccc2cn(-c3ccc([C@@H]4CCCN(CCC5CCN(CCC6CCN(CC7CN(c8ccc9c(c8)C(=O)N(C8CCC(=O)NC8=O)C9=O)C7)CC6)CC5)C4)cc3)nc12` (stereo partly specified), the Emax is 71%.

`NC(=O)c1cccc2cn(-c3ccc([C@@H]4CCCN(C(=O)CCCCNc5ccc6c(c5)C(=O)N(C5CCC(=O)NC5=O)C6=O)C4)cc3)nc12` (stereo partly specified): the Emax turned out to be 29.8%.

Consider `NC(=O)c1cccc2cn(-c3ccc([C@@H]4CCCN(C(=O)COCCOCCOCCOCCOCCNc5ccc6c(c5)C(=O)N(C5CCC(=O)NC5=O)C6=O)C4)cc3)nc12` (stereo partly specified), for which the Emax came out at 47.7%.

`NC(=O)c1cccc2cn(-c3ccc([C@@H]4CCCN(C(=O)C5CCN(C(=O)C6CCN(c7ccc8c(c7)C(=O)N(C7CCC(=O)NC7=O)C8=O)CC6)CC5)C4)cc3)nc12` (stereo partly specified): the Emax is 15.7%.

Consider `NC(=O)c1cccc2cn(-c3ccc([C@@H]4CCCN(C(=O)CC5CCN(C(=O)C6CCN(c7ccc8c(c7)C(=O)N(C7CCC(=O)NC7=O)C8=O)CC6)CC5)C4)cc3)nc12` (stereo partly specified), for which the Emax amounted to 35.6%.

With `NC(=O)c1cccc2cn(-c3ccc([C@@H]4CCCN(C(=O)C5CCN(CC6CN(c7ccc8c(c7)C(=O)N(C7CCC(=O)NC7=O)C8=O)C6)CC5)C4)cc3)nc12` (stereo partly specified), the Emax is 53.9%.

On to `NC(=O)c1cccc2cn(-c3ccc([C@@H]4CCCN(C(=O)CC5CCN(CC6CN(c7ccc8c(c7)C(=O)N(C7CCC(=O)NC7=O)C8=O)C6)CC5)C4)cc3)nc12` (stereo partly specified), for which the Emax was 31.8%.
